Values after ≈ are worked out from the molar mass of the structure shown.
Legend:
Sortase A = molecular target: T1, Sortase A (Staphylococcus aureus, UniProt Q9S446); assay: Inhibition of SrtA
T1 sequence (Q9S446 whole entry): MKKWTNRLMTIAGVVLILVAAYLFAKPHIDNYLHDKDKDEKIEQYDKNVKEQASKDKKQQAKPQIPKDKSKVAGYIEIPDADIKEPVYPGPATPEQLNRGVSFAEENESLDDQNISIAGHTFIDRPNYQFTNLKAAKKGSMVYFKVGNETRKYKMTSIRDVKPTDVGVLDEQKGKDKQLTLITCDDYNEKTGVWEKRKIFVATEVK

Staphylococcus aureus [1] = assay: Antimicrobial activity against Staphylococcus aureus Newman; type: functional
Staphylococcus aureus [2] = assay: Inhibition of Staphylococcus aureus Newman adhesion to fibronectin; type: functional, organism-based
Staphylococcus aureus [3] = assay: Inhibition of Staphylococcus aureus SKM12 adhesion to fibronectin in relative to wild type; type: functional; set-up: scale not given: the % may be the effect or the level left

SMILES	IC50 (Sortase A) [µM]	MIC (Staphylococcus aureus [1]) [µg/mL]	Activity (Staphylococcus aureus [2])	Activity (Staphylococcus aureus [3]) [%]
COc1cc2ccnc3c2c(c1OC)NC=C3 [AAPTAMINE]	103	> 200		
COc1ccc2cc3[n+](cc2c1OC)CCc1cc2c(cc1-3)OCO2.[Cl-] [BERBERINE CHLORIDE]	23.4	100		
Oc1cc2ccnc3c2c(c1O)NC=C3 [DEMETHYLAAPTAMINE]	85.9	25 (≈ 125 µM)		
COC1=Cc2ccnc3ccnc(c23)C1=O [DEMETHYLOXY-AAPTAMINE]	94.7	25 (≈ 118 µM)		
COc1cc2ccnc3c2c(c1O)N(C)C=C3 [ISOAAPTAMINE]	16.2	50 (≈ 219 µM)	Dose-dependent effect	99

Reference: ChEMBL document CHEMBL1149701, “Aaptamines as sortase A inhibitors from the tropical sponge Aaptos aaptos” (Bioorg Med Chem Lett, 2007)
